Measurements published in patent publication US20220031871A1, “ANTIBODIES FOR CHELATED RADIONUCLIDES AND CLEARING AGENTS” (Hoffmann-La Roche Inc., priority 2018, published 2022).

Experiments:
s.c. BxPC3 tumors = experiment: Protocol 146: radiation dosimetry (absorbed doses, MIRD); format: in vivo, SCID mice; details: for Mean absorbed dose, RBE = 1 / Mean absorbed dose, RBE = 5: 20 μCi, pretargeted, tumor-bearing SCID
Protocol: Absorbed doses were calculated following the formalism outlined in Pamphlet No. 21 from the Medical Internal Radiation Dose (MIRD) Committee (Bolch W E, Eckerman K F, Sgouros G, and Thomas S R. J Nucl Med 2009; 50:477-484). Formally, the absorbed dose D(rT) in a target tissue or region rT is calculated as the time-integral of the activity A(rs,t) multiplied by the absorbed dose rate per unit activity S(rT←rs) summed over all source regions rs. Given that the vast majority of energy released by the ^212Pb decay chain comes from alpha radiation and furthermore by the much higher biological effectiveness of alpha radiation (as characterized by the relative biological effectiveness, RBE) two approximations were made: • 1. the energy is absorbed locally due to the short range of the alpha particles, which means that only the term s(rT←rT) is Considered, and • 2. the contribution from beta and gamma radiation is neglected.
With Δα being the energy released by alpha decays, or rather the sum of the mean energies released by alpha decays in the decay chain of ^212Pb, here expressed in units […], the absorbed dose in a target tissue or region rT is calculated by the formula: […]
The calculations are based on the composite (average) decay-corrected radioactive concentration at time t, expressed as [% ID^t/g]t. In a first step, these are transformed into radioactive concentrations as μCi per kg tissue weight for the target tissue rT:
AQ[μCi] is the injected activity and λ is the exponential decay rate for ^212Pb, 0.0651 h^−1 (corresponding to the 10.6-hour half-life).
In a second step, the radioactive concentration was integrated over time for each tissue. This was achieved using the “Linear Log Trapezoidal calculation method” in the pharmacokinetic software Phoenix WinNonlin 6.4 (Certara USA, Inc., 100 Overlook Center, Suite 101, Princeton, N.J. 08540 USA). The model type “Plasma” was used with uniform weighting.
In the final step, absorbed doses were calculated by multiplying the time integrals of the radioactive concentration by the energy release Δα=170·10^−6J/(μCi·h).
The mean absorbed doses in Gy calculated for protocol 146 are shown in Table 24, both as absolute values (RBE=1) and corrected for the higher cytotoxicity of alpha emitters (RBE=5).

s.c. WSU-DLCL2 tumors = experiment: Protocol 162: CD20-PRIT and 1-step RIT efficacy and biodistribution; format: in vivo, SCID mice; details: multiple injections of 20 μCi (PRIT)
Protocol: The aim of this study was to show proof-of-concept of the treatment regimen developed for CEA-PRIT directed against an alternative target: cluster of differentiation 20 (CD20). The therapeutic efficacy was evaluated after 3 cycles of CD20-PRIT in mice bearing subcutaneous WSU-DLCL2 tumors. Comparisons were also made with: 1-step CD20-RIT, using BsAbs that were pre-incubated with ^212Pb-DOTAM before injection; with rituximab, a type I monoclonal antibody directed against CD20 and a reference in treatment of CD20+ diseases; and with GA101, a type II monoclonal antibody also directed against CD20.
Animals were treated according to the experimental schedule illustrated in FIG. 59. Solid WSU-DLCL2 xenografts were established in SCID mice aged 8 weeks on study day 0 by subcutaneous injection of 1.5×10^5 cells into the right flank. […]
Mice in groups H, I, and L were sacrificed and necropsied for biodistribution purposes 24 hours after their first and only injection of ^212Pb-DOTAM or ^212Pb-DOTAM-BsAb; groups J and K were sacrificed and necropsied 24 hours after their second and third ^212Pb-DOTAM injection, respectively. […] Collected samples were weighed and then measured for radioactivity using a 2470 WIZARD^2 automatic gamma counter (PerkinElmer), and the percent injected dose per gram of tissue (% ID/g) subsequently calculated, including corrections for decay and background. […]

NC(=O)CN1CCN(CC(N)=O)CCN(CC(N)=O)CCN(CC(N)=O)CC1.[212Pb+2] [^212Pb-DOTAM]
absorbed dose in most normal tissues, except bladder (s.c. BxPC3 tumors; 20 μCi ^212Pb-DOTAM, RBE=1): below 2 Gy
Mean absorbed dose, RBE = 1 (s.c. BxPC3 tumors; Abdominal fat): 1.25 Gy
Mean absorbed dose, RBE = 5 (s.c. BxPC3 tumors; Abdominal fat): 6.25 Gy
Mean absorbed dose, RBE = 1 (s.c. BxPC3 tumors; Bladder): 6.53 Gy
Mean absorbed dose, RBE = 5 (s.c. BxPC3 tumors; Bladder): 32.64 Gy
Mean absorbed dose, RBE = 1 (s.c. BxPC3 tumors; Blood): 0.72 Gy
Mean absorbed dose, RBE = 5 (s.c. BxPC3 tumors; Blood): 3.60 Gy
Mean absorbed dose, RBE = 1 (s.c. BxPC3 tumors; Brain): 0.04 Gy
Mean absorbed dose, RBE = 5 (s.c. BxPC3 tumors; Brain): 0.19 Gy
Mean absorbed dose, RBE = 1 (s.c. BxPC3 tumors; Colon): 0.43 Gy
Mean absorbed dose, RBE = 5 (s.c. BxPC3 tumors; Colon): 2.17 Gy
Mean absorbed dose, RBE = 1 (s.c. BxPC3 tumors; Femoral bone): 0.27 Gy
Mean absorbed dose, RBE = 5 (s.c. BxPC3 tumors; Femoral bone): 1.33 Gy
Mean absorbed dose, RBE = 1 (s.c. BxPC3 tumors; Heart): 0.33 Gy
Mean absorbed dose, RBE = 5 (s.c. BxPC3 tumors; Heart): 1.63 Gy
Mean absorbed dose, RBE = 1 (s.c. BxPC3 tumors; Kidneys): 1.43 Gy
Mean absorbed dose, RBE = 5 (s.c. BxPC3 tumors; Kidneys): 7.14 Gy
Mean absorbed dose, RBE = 1 (s.c. BxPC3 tumors; Liver): 0.22 Gy
Mean absorbed dose, RBE = 5 (s.c. BxPC3 tumors; Liver): 1.09 Gy
Mean absorbed dose, RBE = 1 (s.c. BxPC3 tumors; Lung): 1.34 Gy
Mean absorbed dose, RBE = 5 (s.c. BxPC3 tumors; Lung): 6.69 Gy
Mean absorbed dose, RBE = 1 (s.c. BxPC3 tumors; Muscle): 0.29 Gy
Mean absorbed dose, RBE = 5 (s.c. BxPC3 tumors; Muscle): 1.47 Gy
Mean absorbed dose, RBE = 1 (s.c. BxPC3 tumors; Pancreas): 0.36 Gy
Mean absorbed dose, RBE = 5 (s.c. BxPC3 tumors; Pancreas): 1.80 Gy
Mean absorbed dose, RBE = 1 (s.c. BxPC3 tumors; Serum): 1.64 Gy
Mean absorbed dose, RBE = 5 (s.c. BxPC3 tumors; Serum): 8.20 Gy
Mean absorbed dose, RBE = 1 (s.c. BxPC3 tumors; Skin): 0.47 Gy
Mean absorbed dose, RBE = 5 (s.c. BxPC3 tumors; Skin): 2.33 Gy
Mean absorbed dose, RBE = 1 (s.c. BxPC3 tumors; Small intestine): 0.22 Gy
Mean absorbed dose, RBE = 5 (s.c. BxPC3 tumors; Small intestine): 1.08 Gy
Mean absorbed dose, RBE = 1 (s.c. BxPC3 tumors; Spleen): 0.27 Gy
Mean absorbed dose, RBE = 5 (s.c. BxPC3 tumors; Spleen): 1.36 Gy
Mean absorbed dose, RBE = 1 (s.c. BxPC3 tumors; Stomach): 0.24 Gy
Mean absorbed dose, RBE = 5 (s.c. BxPC3 tumors; Stomach): 1.20 Gy
Mean absorbed dose, RBE = 1 (s.c. BxPC3 tumors; Tail): 0.54 Gy
Mean absorbed dose, RBE = 5 (s.c. BxPC3 tumors; Tail): 2.69 Gy
Mean absorbed dose, RBE = 1 (s.c. BxPC3 tumors; Tumor (BxPC3)): 19.91 Gy
Mean absorbed dose, RBE = 5 (s.c. BxPC3 tumors; Tumor (BxPC3)): 99.55 Gy
Mean absorbed dose, RBE = 1 (s.c. BxPC3 tumors; Uterus): 0.61 Gy
Mean absorbed dose, RBE = 5 (s.c. BxPC3 tumors; Uterus): 3.04 Gy
tolerability (BW development) (s.c. WSU-DLCL2 tumors): well tolerated
